Series [1] can be described thus: in vitro. The settings on record: rat, plasma.
Procedure: (§1) The stock solution of test compound was prepared in DMSO and diluted at the final concentration of 200 μM.
(§2) • a. 2.5 μL of 200 μM or 1 mM test compound or control compound solution was spiked to 497.5 μL plasma to reach a final concentration of 1 μM or 5 μM. The final concentration of organic solvents was 0.5%. The assay was performed in duplicated. • b. The reaction samples were incubated at 37° C. at approximately 60 rpm in a water bath. • c. Aliquots of 50 μL were taken from the reaction samples at 0, 30, 60, 120, 180 and 240 minutes. The reaction was stopped by the addition of 7 volumes of cold acetonitrile containing internal standards (IS: 100 nM alprazolam, 200 nM imipramine, 200 nM labetalol and 2 μM ketoprofen). • d. All samples were vortexed for 2 minutes, followed by centrifugation at 3,220 g for 30 minutes to precipitate proteins. 100 μL of the supernatant was transferred to a new plate. The supernatant was diluted with ultrapure water according to the LC-MS signal response and peak shape.
(§3) Samples were Analyzed by LC-MS/MS. • LC system: Shimadzu • MS analysis: Triple Quad™ 6500+ from AB Inc (Canada) with an ESI interface • Column temperature: 40° C. • Column: Xselect® Hss T3 2.5μ (2.1×30 mm) coupled with preguard column • Mobile phase: 0.1% formic acid in water (A) and 0.1% formic acid in acetonitrile (B)
(§4) All calculations were carried out using Microsoft Excel. Remaining percentages of parent compounds at each time point were estimated by determining the peak area ratios from extracted ion chromatograms.
Series [2] can be described thus: in vitro. The settings on record: mouse, plasma.
Procedure: as §1, §2, §3, §4
The nature of series [3]: Intestinal mucosal permeation using Caco-2 cell monolayers. The settings on record: human.
Procedure: The Caco-2 cell culture medium was prepared consisting of Dulbecco's Modified Eagle's Medium (DMEM) with high glucose and L-glutamine supplemented with 10% FBS, 1× penicillin-streptomycin mixture and 1× non-essential amino acids (NEAA). • 2. The 50 μL of culture medium was added to each well of the Transwell insert. Transwell insert was removed from reservoir and 25 mL of culture medium was added. • 3. Incubated at 37° C., 5% CO2 for 1 hour. Plates were ready for cell seeding. • 4. The cells were cultivated in T-75 flasks in a cell culture incubator set at 37° C., 5% CO2, 95% relative humidity. The cells were allowed to reach 80-90% confluence before detaching and splitting. • 5. The cultivated cells were rinsed in T-75 flasks with 5 mL PBS. Aspirated off, 1.5 mL trypsin/EDTA was added, and incubated at 37° C. for approximately 5 to 10 minutes or until the cells detach and float. Trypsin/EDTA was inactivated by adding excess serum containing medium. • 6. The cell suspension was moved to a conical tube and cells were pelleted by centrifugation at 120×g for 10 minutes. • 7. The cells were resuspended in seeding medium at a density of 6.86×10^5 cells/mL. This cell concentration can be used to seed 2.40×10^5 cells/cm^2. […] Seeding and Feeding of Caco-2 Cells in Transwell Plates • 1. 50 μL of above cell suspension was added to each well of a previously prepared Transwell plate. • 2. The plate was incubated for 14-18 days. The medium was replaced every other day, beginning no sooner than 48 hours after initial plating. • 3. The procedure for medium changes was as follows. The plate was removed from incubator and placed in hood. The medium was aspirated from reservoir and each Transwell insert. 75 μL of culture medium was added to each well of Transwell inserts and 25 mL of culture medium was added to reservoir tray. The plate was returned to incubator.
When the 14-day Caco-2 cultured cells have reached confluence and are differentiated, they were ready to be used for transport studies. • 2. The medium was removed from reservoir and Transwell inserts. • 3. 75 μL of pre-warmed culture medium was added to each transwell insert and 25 mL of reservoir tray. • 4. The electrical resistance across the monolayer was measured using automated tissue resistance measuring system (World Precision Instruments, Sarasota, FL). • 5. The electrical resistance was recorded for each well. • 6. Once all wells were measured, the plate was returned to incubator. • 7. TEER of each well was calculated by the equation below. The TEER value of each well should be greater than 230 ohms-cm^2. TEER measurement (ohms)×Area of membrane (cm^2)=TEER value (ohm-cm^2)
The Caco-2 plate was removed from the incubator. Next, the monolayer was washed, and the volume exchanged two times using pre-warmed HBSS (10 mM HEPES, pH 7.4). Then the plate was incubated for 30 minutes at 37° C. • 1 mM stock solutions of control compounds and test compound(s) were prepared in DMSO and diluted with HBSS (10 mM HEPES, pH 7.4) to reach the final concentration of 5 μM. The final concentration of DMSO in the incubation system was 0.5%. Digoxin, prazosin and propranolol were used as control compounds in this assay. • 3. HBSS (10 mM HEPES, pH 7.4) was removed after 30 minutes pre-incubation. • 4. The rate of drug transport was incubated in the apical to basolateral direction. 75 μL of the control compounds and test compound was added to the Transwell insert (apical compartment). The wells were filled in the receiver plate (basolateral compartment) with 235 μL of HBSS (10 mM HEPES, pH 7.4). • 5. The rate of drug transport was determined in the basolateral to apical direction. 235 μL of the control compounds and test compound(s) was added to the receiver plate wells (basolateral compartment). The Transwell insert (apical compartment) was filled with 75 μL of HBSS (10 mM HEPES, pH 7.4). • 6. […] Incubated at 37° C. for 2 hours. • 8.
The next series relates to 5-HT2 receptor. The conditions noted are these: rat brain, daily administration; cited from earlier work.
The next series has as its target human 5-HT2A receptor (Homo sapiens, UniProt P28223). The settings on record: human versus rat receptor; cited from earlier work.
A further series concerns frontal cortex. The settings on record: healthy participants, 15 or 20 mg orally; cited from earlier work.
For series [4] the following is noted: humans, controlled setting; cited from earlier work.

The term fraction remaining denotes the share of the starting amount still present when the sample was taken. Lower therefore signals more turnover. What is called Papp A→B is how fast a substance crosses the layer from the apical side. In general, Papp B→A refers to the apparent permeability from the basolateral to the apical side of a cell layer. As a reminder, the efflux ratio is the permeability from basolateral to apical divided by that in the opposite direction, in the common usage.

Structures can show the parent of a compound that is named as a salt.

Chain of human 5-HT2A receptor (P28223 whole entry): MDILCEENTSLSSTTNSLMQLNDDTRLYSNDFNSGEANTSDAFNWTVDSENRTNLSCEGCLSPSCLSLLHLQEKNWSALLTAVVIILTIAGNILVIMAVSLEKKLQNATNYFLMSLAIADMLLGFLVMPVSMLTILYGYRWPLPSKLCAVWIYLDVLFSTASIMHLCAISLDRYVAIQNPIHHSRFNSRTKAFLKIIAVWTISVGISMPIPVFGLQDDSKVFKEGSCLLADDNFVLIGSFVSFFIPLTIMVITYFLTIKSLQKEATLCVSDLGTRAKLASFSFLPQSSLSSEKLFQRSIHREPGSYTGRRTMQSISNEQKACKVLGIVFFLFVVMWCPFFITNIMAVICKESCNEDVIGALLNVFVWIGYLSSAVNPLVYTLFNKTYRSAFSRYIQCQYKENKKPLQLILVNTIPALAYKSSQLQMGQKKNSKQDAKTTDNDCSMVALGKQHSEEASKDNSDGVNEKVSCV

In “in vitro [1]”, `CN(C)CCc1c[nH]c2cccc(OC(=O)CCCC(=O)Oc3cccc4[nH]cc(CCN(C)C)c34)c12` [Compound I-24, Bis(3-(2-(dimethylamino)ethyl)-1H-indol-4-yl) glutarate] had a fraction remaining at 0.5 h of 0%, a fraction remaining at 1 h of 0%, a fraction remaining at 2 h of 0% and a share remaining at 3 h of 0%. Further, the share remaining at 4 h in the series “in vitro [1]” came out at 0%. Further, in the series “in vitro [2]”, the share remaining at 0.5 h stood at 0%, the share remaining at 1 h was found to be 0%, the fraction remaining at 2 h was 0% and the fraction remaining at 3 h came to 0%. In “in vitro [2]”, this compound showed an amount remaining at 4 h of 0%.

As to `CC(C)N(CCc1c[nH]c2cccc(OC(=O)CCCC(=O)Oc3cccc4[nH]cc(CCN(C(C)C)C(C)C)c34)c12)C(C)C` [Compound I-37, Bis(3-(2-(diisopropylamino)ethyl)-1H-indol-4-yl) glutarate dihydrochloride], in series [3] (Caco-2, pH 7.4), the apical-to-basolateral permeability (Papp A→B) at 2 h, 5 µM was 0.54 ×10⁻⁶ cm/s; the basolateral-to-apical permeability (Papp B→A) at 2 h, 5 µM was found to be 11.3 ×10⁻⁶ cm/s; the efflux ratio at 2 h, 5 µM turned out to be 21. In series [3] (Caco-2, pH 7.4, Percentage recovery A→B, apical to basolateral), this compound had a recovery at 2 h, 5 µM of 74.9%. The same compound came in with a recovery at 2 h, 5 µM in series [3] (Caco-2, pH 7.4, Percentage recovery B→A, basolateral to apical) of 107%.

For the compound `CN(C)CCc1c[nH]c2cccc(OP(=O)(O)O)c12` [Psilocybin], in the series with 5-HT2 receptor, the 5-HT2 receptor density entry is given as “reduce 5-HT2 receptor density in rat brain”. Also, the “affinity for 5-HT2A receptor” value on human 5-HT2A receptor is on record as “stronger affinity for the human 5-HT2A receptor than for the rat receptor”. For the same compound, the “absolute metabolic rate of glucose” value in the series on frontal cortex is “increased absolute metabolic rate of glucose in frontal, and to a lesser extent in other, cortical regions as well as in striatal and limbic subcortical structures”. The adverse effect result in series [4] is “transient, delayed headache”.

Values taken from US20260327250A1, “3-ETHYLAMINO-INDOLE DIMERS AS SEROTONERGIC AGENTS USEFUL FOR THE TREATMENT OF DISORDERS RELATED THERETO” (MINDSET PHARMA INC., priority 2022, published 2026).
